# Measured values as given in patent US20160227776A1, “COMPOSITION CONTAINING ATTRACTANT OF NOXIOUS ARTHROPOD COMPRISING PLANT-DERIVED COMPONENT AND ANALOGUE OF SAME” (KYOYU AGRI CO., LTD., priority 2013, published 2016).
# How the values were obtained:
# Assay type in all cases: in vivo
# [1] = tested on: Frankliniella occidentalis; assay: Test Example 2: water trap attraction test, mixtures of two compounds; set-up: key: % of released insects: (treated catch − untreated catch)×100/total released; details: single compound for comparison, 24 hours
# Method: (§1) Mixed hexane solutions were prepared respectively containing two types of compounds selected from among p-anisaldehyde, benzaldehyde, ethyl nicotinate, geraniol, linalool, nerol, citronellol, methyl anthranilate, methyl benzoate, o-aminoacetophenone, o-anisidine, methyl m-aminobenzoate, methyl o-toluate and α-hexylcinnamaldehyde. […] After impregnating pieces of filter paper with the mixed solution of the two types of compounds, the filter paper was affixed on a plastic vial cap using adhesive tape and set up in a water trap containing a surfactant. After releasing 30 adult female Frankliniella occidentalis into an acrylic cage, the water trap containing the above-mentioned mixed attractants was set up in the cage. 24 hours later, the number of Frankliniella occidentalis captured in the water trap was counted and the attraction rate was calculated using Equation 1. In addition, hexane solutions were also prepared containing each of the single compounds at their respective prescribed concentrations for the sake of comparison, and those solutions were tested in the same manner.
# (§2) Attraction rate=(No. of captured individuals in treatment−no. of captured individuals in untreatment)*100/(total no. released per cage) (1)
# (§3) In general, a synergistic attracting effect expected when mixing two given types of attractive compounds and using for treatment is determined from Colby's equation indicated with the following Equation 2: […]
# (§4) X: attraction rate when treated with attractive compound A;
# (§5) Y: attraction rate when treated with attractive compound B; and
# (§6) E: attraction rate expected when treating by mixing attractive compound A and attractive compound B (expected attraction rate value).
# [2] = tested on: Frankliniella occidentalis; assay: Test Example 3: water trap attraction test, mixtures of three compounds; set-up: scale not given here; details: single compound for comparison, 24 hours
# Method: as §1, with “prepared” for “prepared respectively”, “containing three” for “containing two”, “the three” for “the two”, “a pan” for “a water”, “single agents” for “single compounds”
# In general, a synergistic attracting effect expected when mixing three given types of attractive compounds and using for treatment is determined from Colby's equation indicated with the following Equation 3: […]
# as §4
# (§7) Y: attraction rate when treated with attractive compound B;
# Z: attraction rate when treated with attractive compound C; and
# E: attraction rate expected when treating by mixing attractive compound A, attractive compound B and attractive compound C (expected attraction rate value).
# [3] = tested on: Frankliniella occidentalis; assay: Test Example 1: water trap attraction test, single compounds; set-up: key: (captured treated − captured untreated)×100/total released per cage; details: single compound, 30 adult females per cage, 24 hours
# Method: Hexane solutions were prepared respectively containing single compounds selected from among p-anisaldehyde, benzaldehyde, ethyl nicotinate, geraniol, linalool, nerol, citronellol, methyl anthranilate, methyl benzoate, o-aminoacetophenone, o-anisidine, methyl m-aminobenzoate, methyl o-toluate and α-hexylcinnamaldehyde. Each single compound was prepared at five concentration levels consisting of 0.01 μg, 0.1 μg, 1 μg, 10 μg and 100 μg. After impregnating pieces of filter paper with these solutions, the filter paper was affixed on a plastic vial cap using adhesive tape and set up in a water trap containing a surfactant. After releasing 30 adult female Frankliniella occidentalis into an acrylic cage, the water trap containing the above-mentioned attractants was set up in the cage. 24 hours later, the number of Frankliniella occidentalis captured in the water trap was counted and the attraction rate was calculated using Equation 1.
# as §2
# Tetranychus urticae = assay: Test Example 4: plastic tube filter paper contact test, mixtures of two compounds; set-up: key: (treated − untreated contacts) ×100 / repetitions, %; details: weight of each compound 1 μg; contact with filter paper within 10 minutes
# Method: Mixed hexane solutions were prepared respectively containing two types of compounds selected from among p-anisaldehyde, benzaldehyde, ethyl nicotinate, geraniol, linalool, nerol, citronellol, methyl anthranilate, methyl benzoate, o-aminoacetophenone, o-anisidine, methyl m-aminobenzoate, methyl o-toluate and α-hexylcinnamaldehyde. The weight of each compound was adjusted to 1 μg. After impregnating pieces of filter paper (3 mm^2) with the mixed solution of the two types of compounds, the filter paper was set up at the head of a plastic tube (length of 9 cm, 5 mm^2 in diameters). An adult Tetranychus urticae was released into the end of plastic tube. Among 10 minutes, the number of T. urticae contacted the filter paper was counted and the attraction rate was calculated using Equation 1. In addition, hexane solutions were also prepared containing each of the single compounds at their respective prescribed concentrations for the sake of comparison, and those solutions were tested in the same manner.
# Attraction rate=(No. of contacted individuals in treatment−no. of contacted individuals in untreatment)*100/(repetition) (1)
# as §3, §4, §7, §6
# Drosophila melanogaster = assay: Test Example 5: water trap attraction test, mixtures of two compounds; set-up: key: % = (captured treated − captured untreated)×100/total released; details: weight of each compound 100 μg; 20 adults per cage; 24 hours
# Method: Mixed hexane solutions were prepared respectively containing two types of compounds selected from among p-anisaldehyde, benzaldehyde, ethyl nicotinate, geraniol, linalool, nerol, citronellol, methyl anthranilate, methyl benzoate, o-aminoacetophenone, o-anisidine, methyl m-aminobenzoate, methyl o-toluate and α-hexylcinnamaldehyde. The weight of each compound was adjusted to 100 μg. After impregnating pieces of filter paper with the mixed solution of the two types of compounds, the filter paper was affixed on a plastic vial cap using adhesive tape and set up in a water trap containing a surfactant. After releasing 20 adult Drosophila melanogaster into an acrylic cage, the water trap containing the above-mentioned mixed attractants was set up in the cage. 24 hours later, the number of D. melanogaster captured in the water trap was counted and the attraction rate was calculated using Equation 1. In addition, hexane solutions were also prepared containing each of the single compounds at their respective prescribed concentrations for the sake of comparison, and those solutions were tested in the same manner.
# as §2, §3, §4, §5, §6
# Thrips tabaci = assay: Test Example 6: yellow sticky trap attraction test, mixtures of two compounds; set-up: key: % = (captured treated − captured untreated)×100/total released per cup; details: weight of each compound 1 μg; 10 adults per cup; 24 hours
# Method: Mixed hexane solutions were prepared respectively containing two types of compounds selected from among p-anisaldehyde, benzaldehyde, ethyl nicotinate, geraniol, linalool, nerol, citronellol, methyl anthranilate, methyl benzoate, o-aminoacetophenone, o-anisidine, methyl m-aminobenzoate, methyl o-toluate and α-hexylcinnamaldehyde. The weight of each compound was adjusted to 1 μg. After impregnating pieces of filter paper (3 mm^2) with the mixed solution of the two types of compounds, the filter paper was affixed on a yellow sticky trap (1 cm^2). After releasing 10 adult Thrips tabaci into a plastic cup (150 ml), the yellow sticky trap containing the above-mentioned mixed attractants was set up at the side of the plastic cup. 24 hours later, the number of T. tabaci captured in the yellow sticky trap was counted and the attraction rate was calculated using Equation 1. In addition, hexane solutions were also prepared containing each of the single compounds at their respective prescribed concentrations for the sake of comparison, and those solutions were tested in the same manner.
# Attraction rate=(No. of captured individuals in treatment−no. of captured individuals in untreatment)*100/(total no. released per cup) (1)
# as §3, §4, §7, §6
Compound,Attraction Rate ([1]; 100 μg),Attraction Rate ([2]; 100 μg),Attraction Rate ([3]; Amount 0.01 μg),Attraction Rate ([3]; Amount 0.1 μg),Attraction Rate ([3]; Amount 1 μg),Attraction Rate ([3]; Amount 10 μg),Attraction Rate ([3]; Amount 100 μg),Attraction Rate (Tetranychus urticae),Attraction Rate (Drosophila melanogaster),Attraction Rate (Thrips tabaci),Attraction Rate ([1]; 1 μg),Attraction Rate ([2]; 1 μg)
"CCOC(=O)c1cccnc1 [Ethyl nicotinate, ethyl nicotinate]",43,43,13,27,30,36,43,15,3,10,,
"C=CC(C)(O)CCC=C(C)C (stereo not drawn) [Linalool, linalool]",,,13,13,20,13,7,5,3,0,20,20
COc1ccccc1N [o-anisidine],40,40,6,10,20,30,40,15,8,0,,
